Assay results from patent US20080287398A1, “COLD MENTHOL RECEPTOR-1 ANTAGONISTS” (priority 2007, published 2008).
pIC50: −log10 of the molar value. Several values for one entry are separate records, joined by “and”; a condition that tells them apart may be missing. Equal values may be shown once. Read-outs that look alike come from different tables or passages of the source.

How the values were obtained:
[1] = target: T1, canine TRPM8 (Canis lupus familiaris, UniProt Q1A7N1); test: In vitro canine TRPM8 functional assay (Ca2+-sensitive dye, FLIPR/FDSS, icilin activation); format: cell-based; settings: HEK293 cells expressing canine TRPM8, icilin activation; for inhibition at 1 µM: HEK293, 1 μM compound, read-out: % I (1 μM); for pIC50 / IC50: eight-point dose-response; for pIC50: read-out: IC50; for % I (0.5 μM): 0.5 μM compound; for IC50: IC50 (μM)
T1 construct: expressed in transfected cells
T1 sequence (Q1A7N1 1-1104): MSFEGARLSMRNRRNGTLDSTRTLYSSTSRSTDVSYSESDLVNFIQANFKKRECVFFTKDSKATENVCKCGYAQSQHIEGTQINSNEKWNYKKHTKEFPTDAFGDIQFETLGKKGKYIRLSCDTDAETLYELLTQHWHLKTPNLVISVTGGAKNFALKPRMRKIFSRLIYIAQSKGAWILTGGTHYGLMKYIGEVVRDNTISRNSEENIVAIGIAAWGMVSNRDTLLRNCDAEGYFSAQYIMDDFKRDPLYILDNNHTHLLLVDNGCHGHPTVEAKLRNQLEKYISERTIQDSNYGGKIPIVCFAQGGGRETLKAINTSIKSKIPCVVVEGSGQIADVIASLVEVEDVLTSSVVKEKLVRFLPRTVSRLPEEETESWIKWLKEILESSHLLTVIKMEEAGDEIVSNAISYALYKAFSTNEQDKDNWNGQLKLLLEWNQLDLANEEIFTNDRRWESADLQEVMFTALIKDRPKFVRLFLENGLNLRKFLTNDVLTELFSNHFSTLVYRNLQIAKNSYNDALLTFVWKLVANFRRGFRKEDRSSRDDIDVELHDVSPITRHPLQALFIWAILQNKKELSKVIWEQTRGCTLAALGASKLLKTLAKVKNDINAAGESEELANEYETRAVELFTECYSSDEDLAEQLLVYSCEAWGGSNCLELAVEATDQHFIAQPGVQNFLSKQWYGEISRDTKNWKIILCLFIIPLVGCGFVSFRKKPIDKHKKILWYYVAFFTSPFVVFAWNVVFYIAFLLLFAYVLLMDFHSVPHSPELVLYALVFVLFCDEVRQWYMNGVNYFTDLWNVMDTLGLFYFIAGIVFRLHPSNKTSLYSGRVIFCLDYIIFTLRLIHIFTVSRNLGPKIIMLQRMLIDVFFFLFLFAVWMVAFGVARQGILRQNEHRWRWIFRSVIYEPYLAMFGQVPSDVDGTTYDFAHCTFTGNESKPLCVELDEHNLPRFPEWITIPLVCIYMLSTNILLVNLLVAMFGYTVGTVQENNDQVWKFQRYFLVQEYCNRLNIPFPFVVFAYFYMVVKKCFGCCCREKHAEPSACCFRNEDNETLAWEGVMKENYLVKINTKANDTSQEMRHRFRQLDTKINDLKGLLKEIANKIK
Method in brief: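 Icilin challenge (final concentration producing ~80% of maximal response) followed a 5 min compound exposure in canine TRPM8-HEK293 cells dye-loaded with Calcium 3. Intracellular Ca2+ was read on FLIPR/FDSS. EC50 and IC50 values came from nonlinear sigmoidal dose-response fits of basal-subtracted, percent-of-maximum data averaged over quadruplicates.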

[2] = tested on: Male Sprague Dawley rats; test: Inhibition of icilin-induced wet-dog shakes in rats; format: in vivo; settings: rat; 30 mg/kg i.p.; 15′ pre icilin; wet-dog shakes vs vehicle
[3] = tested on: male SD rats; test: Chronic constriction injury (CCI) model of neuropathic pain, acetone-induced hypersensitivity; format: in vivo; settings: rat
Method: Through the mesh floor a series of five applications of acetone (0.05 mL/application) was sprayed onto the bottom of the paw using a multidose syringe device. A positive response took the form of an abrupt withdrawal or lifting of the paw. The percentage of positive responses from the five trials represented the individual's overall response that was then averaged over the entire treatment group. […] An ascending dose response relationship (as in Table 10 below) was generated by addition of successive doses of test compound followed by re-assessment of behavior.

[4] = tested on: Sprague-Dawley rats; test: CFA-induced paw radiant heat hypersensitivity; format: in vivo, rat; settings: for inhibition in vivo at 30 mg/kg: read-out: % Reversal
Method: Intraplantar injection of Complete Freund's Adjuvant (CFA) in rodents results in a long-lasting inflammatory reaction, characterized by a pronounced hypersensitivity to both thermal and mechanical stimuli. This hypersensitivity peaks between 24-72 hours following injection and can last for several weeks. […] This paradigm also may be conducted with a multiple dosing or a prophylactic dosing regime designed to alter the course of hyperalgesia development. This test predicts the analgesic, anti-allodynic and antihyperalgesic effect of numerous effective clinical agents, including NSAIDS such as acetaminophen, aspirin and ibuprofen, and opioids such as morphine.
Each rat was placed in a test chamber on a warm glass surface and allowed to acclimate for approximately 10 minutes. A radiant thermal stimulus (beam of light) was then focused through the glass onto the plantar surface of each hind paw in turn. The thermal stimulus was automatically shut off by a photoelectric relay when the paw was moved or when the cut-off time was reached (20 seconds for radiant heat at ˜5 Amps). An initial (baseline) response latency to the thermal stimulus was recorded for each animal prior to the injection of CFA. Twenty-four hours following intraplantar CFA injection, the response latency of the animal to the thermal stimulus was then re-evaluated and compared to the animal's baseline response time. […] Immediately following the post-CFA latency assessment, test compound or vehicle (usually Solutol, hydroxypropyl methylcellulose, hydroxypropyl beta-cyclodextrin or PEG-400) was administered i.p. or p.o. to rats. […] The percent reversal (% R) of hypersenstivitiy was calculated according to the following formula:
% Reversal=(Treatment Response-CFA Response)/(Baseline Response-CFA Response)×100.

[5] = target: T1, canine TRPM8; test: TRPM8 patch clamp assay (whole-cell, HEK293 cells); format: cell-based
Method: For patch clamp experiments, HEK293 cells stably transfected with canine TRPM8 were cultured in DMEM supplemented with 10% fetal bovine serum, 100 units/ml penicillin, 100 μg/ml streptomycin and 1 mg/ml G418. Cells were maintained at 37° C. and in 5% CO2.
The extracellular solution contained (in mM): NaCl, 132; EGTA, 1; KCl, 5.4; MgCl2, 0.8; HEPES, 10; glucose, 10; pH=7.4. Recordings were performed using the conventional whole-cell patch clamp technique, 1-2 days after plating cells onto glass coverslips at densities appropriate for single cell recording. Currents were amplified by a patch clamp amplifier and filtered at 2 kHz (Axopatch 200B, Molecular Devices, Union City, Calif.). Menthol (100 μM) was applied to the cell at 0.5 ml/min via a gravity-fed perfusion system. Recordings involving menthol activation were performed at 22° C.
In experiments where temperatures were varied, temperature ramps were generated by cooling the perfusate in an in-line cooler (Model SC-20, Warner Instruments, Hamden, Conn.) controlled by a temperature controller (Model CL-100, Warner Instruments). The temperature in the vicinity of the recorded cell was measured with a custom-made miniature thermo-microprobe connected to a monitoring thermometer (Model TH-8, Physitemp, Clifton, N.J.), and sampled using Digidata 1322A and pClamp 9.0 (Molecular Devices), as were the currents concurrently measured in the whole-cell patch clamp mode. The current was continuously sampled (at 100 Hz) at a holding potential of −60 mV.
Compounds were diluted from 10 mM DMSO stocks (stored at −20° C.) into an extracellular solution either containing 100 μM menthol or subjecting to cooling. Increasing concentrations of a compound were applied to a cell in a cumulative manner and concentration-dependent responses were measured after steady-state activation was achieved by either 100 μM menthol or cooling to 10° C. A saturating concentration of a reference antagonist was applied at the end of an experiment (either in the presence of 100 μM menthol or 10° C. temperature) to establish the baseline from which all the other measurements were subtracted.
Percentage inhibition by a compound was calculated as follows: 100×(1−Icomp/I0); where Icomp and I0 are steady-state current amplitudes in either the presence or absence of a concentration of the compound.

[6] = tested on: rats; test: Reversal of icilin-induced behaviors (wet-dog shakes) in rats; format: in vivo; settings: rat; 30 mg/kg p.o.; 1 h post-icilin
Method: In this paradigm, icilin-induced shaking was counted for 10 minutes followed by administration of a compound of Formula (I). The diminution of shaking behavior is represented as a percent inhibition relative to icilin-induced shakes in the absence of test compound administration, as described by the following formula: % Inhibition=[1−(WDS count following test compound dose/WDS count prior to test compound dose)]×100.

[7] = tested on: male CD1 mice; test: Acetic acid graded abdominal irritant test with a 24-hour thioglycolate pretreatment; format: in vivo; settings: mouse; 30 mg/kg p.o.; time 1 h; abdominal contractions vs vehicle
Method: A chemical irritant (such as acetic acid, kaolin, bradykinin, phenyl-p-(benzo) quinine, bromo-acetylcholine, or zymosan) is injected in mice intraperitoneally, causing a contraction of the abdominal musculature, which is characterized by an elongation of the body extending through to the hind limbs. The number of such responses is quantitated and is reduced by pretreatment of analgesic agents, thus forming the basis for a screening test (Collier H O et al. Br J Pharmacol Chemother 1968, 32(2): 295-310). This type of abdominal irritant test has been used to predict the analgesic effect of numerous clinically effective agents, the potency of which in the abdominal irritant test parallels the magnitude of the dose needed in the relief of clinical pain.
One modification of the chemically-induced abdominal irritant model of visceral pain is to pretreat animals with agents known to induce inflammatory responses following intraperitoneal injection (such as LPS, zymosan, or thioglycolate). […] Because of the up-regulation of the TRPM8 receptor in inflammation, TRPM8 antagonists that are effective at reducing the mean number of contractions are predicted to provide antiinflammatory action in human clinical use.
The ability of compounds of Formula (I) to mitigate chemical irritant—induced abdominal contractions following a pre-conditioning inflammatory stimulus were studied. […]

[8] = rat, 30 mg/kg p.o., time 2 h (printed 2 h or 2)
[9] = read-out: IC50, mode of activation Cold (10° C.), HEK293 cells stably transfected with canine TRPM8, cooling to 10° C.
[10] = read-out: IC50, mode of activation Menthol (100 μM), HEK293 cells stably transfected with canine TRPM8, 100 μM menthol, 22° C.
[11] = po, rat, 30 mg/kg p.o., time 1 h
[12] = IC50, mode of activation Menthol (100 μM), HEK293 cells stably transfected with canine TRPM8, 100 μM menthol, 22° C.
[13] = HEK293, read-out: % I (0.5 μM), 0.5 μM compound
[14] = HEK293 cells stably transfected with canine TRPM8, 100 μM menthol, 22° C.

Cc1c(C(Cc2ccc(F)c(F)c2)P(=O)(OC(C)C)OC(C)C)sc2ncccc12 (stereo not shown) [Cpd 34, [2-(3,4-Difluoro-phenyl)-1-(3-methyl-thieno[2,3-b]pyridin-2-yl)-ethyl]-phosphonic acid diisopropyl ester]
inhibition at 1 µM [1]: 100%
pIC50 [1]: 6.92 and 6.82 and 6.70
% Inhibition [2]: 28.8%

(S)-[1-(3-Bromo-benzo[b]thiophen-2-yl)-2-(4-trifluoromethoxy-phenyl)-ethyl]-phosphonic acid diisopropyl ester [Cpd 236]
% of Allodynic Baseline ([3]; 30 mg/kg p.o., preRx 4 hr): 28.6%
% of Allodynic Baseline ([3]; 100 mg/kg p.o., preRx 4 hr): 68.8%
% Reversal [4, 8]: 25%
% I (0.5 μM) [1]: 103, 103%
pIC50 [5, 9]: 8.54
pIC50 [5, 10]: 8.85
% Inhibition [6]: 36.8%

CC(C)OP(=O)(OC(C)C)[C@H](Cc1ccc(F)c(F)c1)c1sc2ccccc2c1Br [Cpd 235, (R)-[1-(3-Bromo-benzo[b]thiophen-2-yl)-2-(3,4-difluoro-phenyl)-ethyl]-phosphonic acid diisopropyl ester]
% of Allodynic Baseline ([3]; 30 mg/kg p.o., preRx 1 hr): 34.3%
inhibition in vivo at 30 mg/kg [4, 11]: 45%
pIC50 [1]: 6.60
pIC50 [5, 12]: 7.23

CC(C)OP(=O)(OC(C)C)C(Cc1ccc(F)c(C(F)(F)F)c1)c1sc2ccccc2c1Br (stereo not shown) [Cpd 241, [1-(3-Bromo-benzo[b]thiophen-2-yl)-2-(4-fluoro-3-trifluoromethyl-phenyl)-ethyl]-phosphonic acid diisopropyl ester]
inhibition in vivo at 30 mg/kg [4, 11]: 72%
inhibition at 0.5 µM ([1]; HEK293, 0.5 μM compound, read-out: % I (0.5 μM)): 102%
inhibition at 1 µM [1]: 103%
pIC50 [1]: 7.42
pIC50 [5, 12]: 8.80

CCOP(=O)(OCC)C(Cc1ccc(F)cc1)c1sc2ccccc2c1Br (stereo not shown) [Cpd 238, [1-(3-Bromo-benzo[b]thiophen-2-yl)-2-(4-fluoro-phenyl)-ethyl]-phosphonic acid diethyl ester]
inhibition in vivo at 30 mg/kg ([4]; Rattus norvegicus, po, 2 h): 56%
inhibition at 0.5 µM [1, 13]: 104%
IC50 [1]: 0.044 µM
pIC50 [5, 14]: 9.28

CCOP(=O)(OCC)C(Cc1ccc(OC(F)(F)F)cc1)c1sc2ccccc2c1Br (stereo not shown) [Cpd 155, [1-(3-Bromo-benzo[b]thiophen-2-yl)-2-(4-trifluoromethoxy-phenyl)-ethyl]-phosphonic acid diethyl ester]
inhibition in vivo at 30 mg/kg ([4]; Rattus norvegicus, po, 1 h): 138%
inhibition at 0.5 µM [1, 13]: 104%
IC50 [1]: 0.046 µM and 0.12 µM and 0.09 µM
pIC50 [5, 14]: 7.90

(S)-[1-(3-Bromo-benzo[b]thiophen-2-yl)-2-(4-fluoro-phenyl)-ethyl]-phosphonic acid diisopropyl ester [Cpd 239]
% of Allodynic Baseline ([3]; 30 mg/kg p.o., preRx 1 hr): 29.4%
% Reversal [4, 8]: 36%
% I (0.5 μM) [1]: 103, 103%
pIC50 [1]: 7.43 and 7.57 and 7.51
pIC50 [5, 9]: 8.24
pIC50 [5, 10]: 8.52
% Inhibition [6]: 48.4%

CCCP(=O)(CCC)C(OCc1ccc(F)c(F)c1)c1sc2ccccc2c1C (stereo not shown) [Cpd 42]
inhibition at 1 µM [1]: 100%
pIC50 [1]: 6.82 and 6.85
% Inhibition [2]: 70.6%

CC(C)OP(=O)(OC(C)C)C(Cc1ccc(F)c(F)c1)c1sc2ccccc2c1Br (stereo not shown) [Cpd 15, [1-(3-Bromo-benzo[b]thiophen-2-yl)-2-(3,4-difluoro-phenyl)-ethyl]-phosphonic acid diisopropyl ester]
inhibition in vivo at 30 mg/kg ([4]; ip, rat, 30 mg/kg i.p., time 1 h): 95%
inhibition in vivo at 30 mg/kg [4, 11]: 82%
ED50 ([4]; po, rat, p.o., 3-point dose-response, 10% solutol vehicle, 1 h time point, read-out: oral ED50): 11.4 mg/kg
inhibition at 1 µM [1]: 99%
pIC50 [1]: 7.54 and 7.32 and 6.98
% Inhibition [2]: 71.1%
% I [7]: 33%

Cc1c(C(Cc2ccc(F)c(F)c2)P(=O)(OCC(C)(C)C)OCC(C)(C)C)sc2ccccc12 (stereo not shown) [Cpd 53, [2-(3,4-Difluoro-phenyl)-1-(3-methyl-benzo[b]thiophen-2-yl)-ethyl]-phosphonic acid bis-(2,2-dimethyl-propyl) ester]
inhibition in vivo at 30 mg/kg ([4]; ip, 0.5 h, rat, 30 mg/kg i.p., time 30′): 77%
inhibition in vivo at 30 mg/kg ([4]; po, rat, 30 mg/kg p.o., time 2 h (printed 2 h or 2)): 44%
inhibition at 1 µM [1]: 100%
pIC50 [1]: 6.66 and 6.59
% Inhibition [2]: 65.6%
